Measurements from patent publication US20120122816A1, “COMPOSITIONS AND METHODS FOR ORGAN PRESERVATION” (Resolvyx Pharmaceuticals, Inc., priority 2009, published 2012).
Where two headings read alike, the source gives them in different places.

Tests used:
ARPE-19 cells = assay: Oxidative stress-induced apoptosis (TNF-α/H2O2), Hoechst positive cells; type: cell-based; conditions: for oxidative stress-induced apoptosis, concentration dependence: 10, 30 and 50 nM; for inhibition at 0.03 µM / inhibition at 0.05 µM: Homo sapiens, ARPE-19; for inhibition at 0.05 µM: 50 nM compound
Method: (§1) The effects of compounds of the invention on apoptotic cell death induced by oxidative stress and on Il-1β induced pro-inflammatory COX-2 gene expression in ARPE-19 cells was measured using the following protocol.
(§2) 72 h grown cells in 6 well plates were serum starved for 8 h, and then oxidative stress was induced with TNF-α/H2O2 (600 μM) for 16 h. Cells were incubated with different concentrations of compound X, compound Z, and compound 48b. Apoptotic cell death was scored by Hoechst positive cells. COX-2 (−830) promoter construct, linked to luciferase reporter gene, was used to transfect ARPE-19 cells by Fugene-6. A β-galactosidase plasmid was co-transfected as transfection control. Transfected cells were serum starved, induced by Il-1β, and incubated with different concentrations of compound X, compound Z, and compound 48b. Luciferase assays were performed using luciferin as substrate.

COX-2 gene expression = assay: Il-1β induced COX-2 promoter luciferase reporter assay in ARPE-19 cells; type: cell-based; conditions: FIG. 3
Method: as §1, §2

H9C2 cells [1] = assay: Protection against hypoxia-reoxygenation injury (trypan blue uptake, MTT); type: cell-based, rat
Method: The ability of compound X to protect cardiomyocytes against hypoxia-reoxygenation injury was measured using the following protocol.
H9C2 cells derived from embryonic rat heart tissue were incubated with compound X (0, 1, 10, 100, or 1000 nM). Cells were subjected to 16 h of hypoxia and 2 h of reoxygenation. Cell death was assessed by trypan blue (TB) uptake and cell viability by MTT (3-(4,5-dimethylthiazol-2-yl)-2,5-diphenyl tetrazolium bromide) assay.

Rats = assay: Protection against ischemia reperfusion injury (coronary artery occlusion and reperfusion); type: in vivo, rat
Method: The ability of compound X, administered before reperfusion, to limit myocardial infarct size (IS) was measured using the following protocol.
Rats were anesthetized with ketamine and xylazine and underwent 30 min of coronary artery occlusion and 4 h of reperfusion. Just before reperfusion rats received compound X i.v. (0.03 mg/kg, 0.1 mg/kg or 0.3 mg/kg) or vehicle alone (control). Area at risk (AR) was assessed by blue dye and IS by triphenyltetrazoliumchloride (TTC) staining.

H9C2 cells [2] = assay: Protection against hypoxia-reoxygenation injury (trypan blue uptake, MTT); type: cell-based, rat; remark: listed apart in the source
[3] = 30 nM compound, TNF-α/H2O2 (600 μM) 16 h, FIG. 1, read-out: inhibition of oxidative stress-induced apoptosis
[4] = TNF-α/H2O2 (600 μM) 16 h, FIG. 1
[5] = i.v. 0.03-0.3 mg/kg, anesthetized rats

Row | Compound | oxidative stress-induced apoptosis, concentration dependence (ARPE-19 cells) | inhibition at 0.03 µM (ARPE-19 cells; [3]) [%] | inhibition at 0.05 µM (ARPE-19 cells; [4]) [%] | expression of pro-inflammatory COX-2 (COX-2 gene expression) | TB (%) (trypan blue positive cells) (H9C2 cells [1]; 1.0 nM, 16 h hypoxia, 2 h reoxygenation) | TB (%) (trypan blue positive cells) (H9C2 cells [1]; 10 nM, 16 h hypoxia, 2 h reoxygenation) | TB (%) (trypan blue positive cells) (H9C2 cells [1]; 100 nM, 16 h hypoxia, 2 h reoxygenation) | TB (%) (trypan blue positive cells) (H9C2 cells [1]; 1000 nM, 16 h hypoxia, 2 h reoxygenation) | viability at 0.001 µM (H9C2 cells [1]; Rattus norvegicus, H9c2, 1.0 nM, 16 h hypoxia, 2 h reoxygenation, read-out: MTT (%) (cell viability)) | viability at 0.01 µM (H9C2 cells [1]; Rattus norvegicus, H9c2, 10 nM, 16 h hypoxia, 2 h reoxygenation, read-out: MTT (%) (cell viability)) | viability at 0.1 µM (H9C2 cells [1]; Rattus norvegicus, H9c2, 100 nM, 16 h hypoxia, 2 h reoxygenation, read-out: MTT (%) (cell viability)) | viability at 1 µM (H9C2 cells [1]; Rattus norvegicus, H9c2, 1000 nM, 16 h hypoxia, 2 h reoxygenation, read-out: MTT (%) (cell viability)) | concentration of maximal effect (H9C2 cells [1]; tested 1-1000 nM) [nM] | inhibition at 0.03 µM (ARPE-19 cells; each compound at 30 nM, plus compound 48b, FIG. 2, read-out: combined inhibition of apoptosis upon addition of compound 48b) [%] | myocardial infarct size (IS) (Rats; i.v. 0.03, 0.1 or 0.3 mg/kg just before reperfusion, 30 min occlusion, 4 h reperfusion, FIG. 4) | heart rate (Rats; [5]) | mean blood pressure (Rats; [5]) | apoptosis (H9C2 cells [2])
1 | CC/C=C\C[C@H](O)\C=C/C=C/C=C/[C@H](O)C/C=C\C/C=C\CCC(=O)O [Compound 48b] | inhibit oxidative stress-induced apoptosis in a concentration dependent manner | ~45 | ~80 | stronger inhibition | – | – | – | – | – | – | – | – | – | – | – | – | – | –
2 | CC[C@@H](O)/C=C/C=C\C[C@@H](O)/C=C/C=C/C=C\[C@@H](O)CCCC(=O)O [Compound X] | inhibit oxidative stress-induced apoptosis in a concentration dependent manner | ~20 | ~30 | inhibited | 35.5 ± 0.4 | 30.3 ± 0.4 | 23.8 ± 0.9 | 24.1 ± 0.3 | 50.1 ± 0.8 | 62.6 ± 1.2 | 74.6 ± 0.9 | 70.5 ± 0.5 | 100 | ~60 | dose-dependently limited IS | did not affect | did not affect | decreased apoptosis
